Results taken from patent publication US8092785B2, “Process for milling poorly soluble drugs in presence of liquid propellants” (Glaxo Group Limited, priority 2004, dated 2012).

Assays:
[1] = Physical form of milled, co-milled or spray dried product by XRPD; assay type: physicochemical
Protocol: Drug substance prepared according to the present invention maybe characterised by a series of physical analytical techniques well known to those skilled in the art for analysing physical form, for instance XPRD, polarised light microscopy (PLM), thermal analysis, FT-IR and laser diffraction particle sizing.
500 mg of drug or drug:polymer blend (PVP K30, PVP/VA 64 (BASF) and PVP/VA 37 (BASF)) (1:2 w/w) was ball milled in a mixer mill (MM2 Mixer mill, Glen Creston Ltd). The sample was milled at 17.5 1/sec in a 25 ml chamber for 120 minutes at 2% w/v with 2×12 mm diameter and 6×7 mm diameter stainless steel ball bearings.
500 mg of drug or drug:polymer blend (PVP K30) (1:2 w/w) was placed in a 25 ml milling chamber (2% w/v). Grinding media of 2×5 mm, 2×7 mm, 2×9 mm and 2×12 mm ball bearings were added. 10 g of 134a (Du Pont) was then added into the milling chamber via a valve. The sample was then milled for 2×20 minute periods at a frequency of 25 1/sec using a Retsch MM200 Mixer mill.
XPRD patterns of resultant products are shown as FIG. 1.1 to 1.4.
500 mg of drug and 1 g of polymer (1:2 w/w) was placed in a 25 ml measuring chamber. Grinding media of 2 mm Yttrium-Zirconium beads (equivalent volume 5 ml) were added. 12 ml of propellant 134a was then added into the milling chamber via a valve. The sample was then milled for 30 minutes at a frequency of 25 1/sec using a Retsch MM200 Mixer mill.
Drug (2 g) and polymer (3 g) were dissolved in approximately 200 ml of dimethyl formamide and spray dried at approximately 2 ml/min using a lab scale spray drier (Buchi B191, outlet temperature about 95° C.). The spray dried powders were then further dried at 65° C. under vacuum for 48 hrs. The dispersions were amorphous by XRPD.
Thus, the co-milling process has not compromised the physical form of compound A.

[2] = Particle size of milled product (SEM analysis / particle sizing); assay type: physicochemical
Protocol: Drug substance prepared according to the present invention maybe characterised by a series of physical analytical techniques well known to those skilled in the art for analysing physical form, for instance XPRD, polarised light microscopy (PLM), thermal analysis, FT-IR and laser diffraction particle sizing. 500 mg of drug or drug:polymer blend (PVP K30, PVP/VA 64 (BASF) and PVP/VA 37 (BASF)) (1:2 w/w) was ball milled in a mixer mill (MM2 Mixer mill, Glen Creston Ltd). The sample was milled at 17.5 1/sec in a 25 ml chamber for 120 minutes at 2% w/v with 2×12 mm diameter and 6×7 mm diameter stainless steel ball bearings. 500 mg of drug or drug:polymer blend (PVP K30) (1:2 w/w) was placed in a 25 ml milling chamber (2% w/v). Grinding media of 2×5 mm, 2×7 mm, 2×9 mm and 2×12 mm ball bearings were added. 10 g of 134a (Du Pont) was then added into the milling chamber via a valve. The sample was then milled for 2×20 minute periods at a frequency of 25 1/sec using a Retsch MM200 Mixer mill.

[3] = set-up: key: Those in class II have low solubility and high permeability; those in class IV have low solubility and low permeability; settings: classified according to solubility and permeability (Amidon et al); cited from earlier work
[4] = Dissolution testing of ball milled and 134a ball milled products (USP II apparatus, sink conditions); assay type: physicochemical; settings: neat drug ball milled in 134a, 37.5° C., 50 RPM
Protocol: The dissolution profiles of study compounds prepared by ball milling and 134a ball milling were measured according to the following method:
Dissolution testing was carried out under sink conditions using a VanKel USP II dissolution apparatus (fluid pump Model 17-2300, water bath VK750D, water bath stirrer VK7010). Dissolution testing was carried out at 37.5° C.+/−0.5° C. (Digitron Type K thermocouple thermometer). Vessels were stirred at 50 RPM. Samples underwent online UV analysis (Hewlett Packard 8453) at time points 0, 2, 5, 10, 15, 20, 30, 45 and 60 minutes. Samples were filtered with a 10 μm filters (Anachem). The pH 6.8 0.1M phosphate buffer^1 was degassed prior to commencement of the dissolution run (Copley Dissofill, model DSF2). Standard curves were prepared by dissolving drug in acetonitrile:water (1:1) for carbamazepine and glibenclamide or acetonitrile:pH 6.8 buffer (1:1) for dipyridamole and indomethacin. Drug concentration, UV cell path length, dissolution media and wavelength of detection were all compound specific. All analysis was carried out in triplicate. ^1 pH 6.8 buffer: 20 l prepared by addition of 10 l of Na2HPO4.2H2O 17.8 g/l to 10 l of NaH2PO4.H2O 13.8 g/l. pH was confirmed using a pH meter.

[5] = ball milling with propellant 134a, 2×20 minute
[6] = conventional ball milling, 120 minutes, no propellant
[7] = ball milling with 134a, compared to conventionally milled product

Row | SMILES | physical form of product [1, 5] | physical form of product [1, 6] | particle size [2, 7] | particle size ([2]; conventional ball milling) | Biopharmaceutics Classification system class [3] | dissolution rate [4]
1 | NC(=O)N1c2ccccc2C=Cc2ccccc21 [carbamazepine, Carbamazepine] | complete conversion to a crystalline form, form III | conversion to a crystalline form, form III | significant decrease in particle size | no significant decrease in particle size | II | 
2 | COc1ccc(Cl)cc1C(=O)NCCc1ccc(S(=O)(=O)NC(=O)NC2CCCCC2)cc1 [glibenclamide] | remained in the same crystalline form as the starting material | amorphous product | significant decrease in particle size |  | II | 
3 | COc1ccc2c(c1)c(CC(=O)O)c(C)n2C(=O)c1ccc(Cl)cc1 [indomethacin] | γ form | predominantly amorphous product | significant decrease in particle size |  | II | 
4 | OCCN(CCO)c1nc(N2CCCCC2)c2nc(N(CCO)CCO)nc(N3CCCCC3)c2n1 [dipyridamole] | dipyridamole form II | predominantly amorphous product |  |  | II | improved in dissolution rate
